Assay results from patent US12281122B1, “PI3K inhibitors” (Cogent Biosciences, Inc., priority 2023, dated 2025).
Read-outs that look alike come from different tables or passages of the source.

Experiments:
[1] = target: PI3Kα (Homo sapiens, UniProt P42336); experiment: PI3Kα enzyme assay (Transcreener ADP2 TR-FRET Red Assay); type: biochemical; settings: purified recombinant full-length protein; 2 hours pre-incubation with compound; read-out: PI3Kα WT IC50
In short: (§1)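 Purified recombinant full-length enzymes pre-incubated 2 h at room temperature with compounds (11-point 1:3 dilutions, typically 50,000–0.85 nM), then started with ATP/PI(4,5)P2 diC8 and run 60 min at room temperature in 40 mM HEPES pH 7.5, 20 mM NaCl, 25 mM MgCl2, 0.01% Triton X-100. ADP detected by TR-FRET 665/615 ratio; IC50 from four-parameter fit of percent of control.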

[2] = target: PI3Kα H1047R (Homo sapiens, UniProt P42336, H1047R); experiment: PI3Kα H1047R enzyme assay (Transcreener ADP2 TR-FRET Red Assay); type: biochemical; settings: purified recombinant full-length protein; 2 hours pre-incubation with compound
Sequence of PI3Kα H1047R (P42336 whole entry H1047R): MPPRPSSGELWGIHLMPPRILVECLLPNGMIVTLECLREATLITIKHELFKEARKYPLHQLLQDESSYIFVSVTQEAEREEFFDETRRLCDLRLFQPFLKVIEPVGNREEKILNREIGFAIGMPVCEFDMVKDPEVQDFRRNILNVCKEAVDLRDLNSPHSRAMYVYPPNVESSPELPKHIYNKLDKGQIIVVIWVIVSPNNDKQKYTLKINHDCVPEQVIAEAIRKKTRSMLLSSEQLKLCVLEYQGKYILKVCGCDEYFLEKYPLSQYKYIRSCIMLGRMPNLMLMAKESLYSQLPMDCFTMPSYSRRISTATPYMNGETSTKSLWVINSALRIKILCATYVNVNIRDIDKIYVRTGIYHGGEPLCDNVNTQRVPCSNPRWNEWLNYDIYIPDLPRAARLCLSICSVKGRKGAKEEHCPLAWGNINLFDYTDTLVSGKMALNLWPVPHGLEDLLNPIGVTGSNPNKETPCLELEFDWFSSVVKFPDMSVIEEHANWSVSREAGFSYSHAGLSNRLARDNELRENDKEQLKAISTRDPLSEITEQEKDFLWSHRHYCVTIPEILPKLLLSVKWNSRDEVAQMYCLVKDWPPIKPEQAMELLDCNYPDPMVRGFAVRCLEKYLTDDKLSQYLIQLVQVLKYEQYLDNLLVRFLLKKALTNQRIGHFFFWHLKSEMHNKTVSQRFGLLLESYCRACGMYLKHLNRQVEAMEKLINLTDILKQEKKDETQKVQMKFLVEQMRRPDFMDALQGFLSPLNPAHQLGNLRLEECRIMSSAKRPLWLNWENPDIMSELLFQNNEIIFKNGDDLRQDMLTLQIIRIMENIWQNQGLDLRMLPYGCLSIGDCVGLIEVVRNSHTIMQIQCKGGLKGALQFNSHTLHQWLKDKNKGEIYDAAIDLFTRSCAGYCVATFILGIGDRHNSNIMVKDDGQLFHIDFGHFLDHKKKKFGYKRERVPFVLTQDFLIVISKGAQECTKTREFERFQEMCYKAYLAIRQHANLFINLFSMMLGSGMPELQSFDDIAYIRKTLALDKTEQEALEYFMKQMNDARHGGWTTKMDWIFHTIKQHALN
Sequence of PI3Kα H1047R (P27986 2-724 partner): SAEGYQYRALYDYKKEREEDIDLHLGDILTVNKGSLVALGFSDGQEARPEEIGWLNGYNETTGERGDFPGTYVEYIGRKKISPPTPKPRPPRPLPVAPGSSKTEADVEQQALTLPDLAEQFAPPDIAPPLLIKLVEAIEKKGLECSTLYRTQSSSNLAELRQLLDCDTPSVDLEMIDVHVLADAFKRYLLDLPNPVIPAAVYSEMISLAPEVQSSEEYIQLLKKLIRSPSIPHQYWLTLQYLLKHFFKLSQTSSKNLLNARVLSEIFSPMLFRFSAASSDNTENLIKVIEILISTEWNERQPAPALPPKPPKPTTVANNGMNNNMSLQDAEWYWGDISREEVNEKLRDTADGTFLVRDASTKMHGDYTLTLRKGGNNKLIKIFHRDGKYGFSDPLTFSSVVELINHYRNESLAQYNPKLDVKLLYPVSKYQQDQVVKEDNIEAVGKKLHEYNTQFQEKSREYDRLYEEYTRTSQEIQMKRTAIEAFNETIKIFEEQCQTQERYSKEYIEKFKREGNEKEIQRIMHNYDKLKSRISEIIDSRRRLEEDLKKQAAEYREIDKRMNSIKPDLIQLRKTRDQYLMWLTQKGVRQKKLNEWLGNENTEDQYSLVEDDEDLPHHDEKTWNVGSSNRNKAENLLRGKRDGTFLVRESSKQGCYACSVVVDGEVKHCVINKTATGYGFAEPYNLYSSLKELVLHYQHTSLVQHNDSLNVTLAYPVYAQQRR
In short: as §1

[3] = test system: T47D (PI3Kα-H1047R) cell line; experiment: HTRF phospho-AKT(S473) cell assay in T47D cells; type: cell-based, human; settings: Homo sapiens; T47D (PI3Kα-H1047R) cells, HTRF phospho-AKT(S473), 2 hours compound incubation
In short: (§2)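 Cells plated overnight (T47D in RPMI/10% FBS/0.2 units/mL insulin; SKBR3 in McCoy's 5A/10% FBS), then given 12-point 1:3 compound series (top 5 μM T47D, 10 μM SKBR3; ≤0.5% DMSO) for 2 h at 37° C. SKBR3 stimulated with 70 ng/ml PDGF-BB for final 15 min. Lysate pAKT(S473) by HTRF; IC50 calculated.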

[4] = test system: SKBR3 (PI3Kα-Wild Type) cell line; experiment: HTRF phospho-AKT(S473) cell assay in SKBR3 cells; type: cell-based, human; settings: Homo sapiens, SK-BR-3; SKBR3 (PI3Kα-Wild Type) cells, HTRF phospho-AKT(S473), 2 hours compound incubation, PDGF-BB stimulated
In short: as §2

[5] = Mouse PK, IV and PO; settings: in vivo

Sequence of PI3Kα (P42336 whole entry): as the sequence (P42336 whole entry H1047R) above, with R1047H counted along it
Sequence of PI3Kα (P27986 2-724 partner): as the sequence (P27986 2-724 partner) above

IC50 [1]: ≥ 1000 nM
IC50 [2]: 500 to 1000 nM
IC50 [3]: < 250 nM
IC50 [4]: 1000 to 5000 nM
clearance ([5]; IV dose 3 mg/kg, read-out: PK-Mouse: IV Cl): 0.74 mL/min/kg
AUC(0-inf) ([5]; IV dose 3 mg/kg, read-out: PK-Mouse: IV-AUCinf): 67.5 µg·h/mL
Cmax ([5]; PO dose 30 mg/kg, 20% Captisol (aq), fed): 35500 ng/mL
AUC(0-inf) ([5]; PO dose 30 mg/kg, 20% Captisol (aq), fed, read-out: PK-Mouse: PO AUCinf): 548 µg·h/mL
bioavailability ([5]; PO dose 30 mg/kg, 20% Captisol (aq), fed, read-out: PK-Mouse: PO F (%)): 81%
SMILES: Cc1cc([C@@H](C)Nc2ccc(Cl)nc2C(=O)NS(C)(=O)=O)c2nc(N3Cc4ccc(F)cc4C3)n(C)c(=O)c2c1 [Compound 1, (R)-6-chloro-3-((1-(2-(5-fluoroisoindolin-2-yl)-3,6-dimethyl-4-oxo-3,4-dihydroquinazolin-8-yl)ethyl)amino)-N-(methylsulfonyl)picolinamide]
